# Measurements: patent US20220400703A1, “FORMULATIONS FOR TREATMENT OF VIBRIO INFECTIONS” (ARIZONA BOARD OF REGENTS ON BEHALF OF THE UNIVERSITY OF …, priority 2019, published 2022)
# Several values for one entry are separate records, joined by “and”; a condition that tells them apart may be missing. Equal entries are not always repeated. Entries after “also recorded” stand apart in the source; their conditions may differ.
# What was measured:
# [1] = test system: Vibrio parahaemolyticus (Strain A3); experiment: Minimum inhibitory concentration (MIC) assay in liquid culture (OD600 and colony count); type: cell-based; details: for MIC assay results: effective concentration (Example 1): Example 1, liquid culture; for MIC (Example 2): TSB+ liquid culture, OD600 and colony count, 24 h and 48 h; for Extract concentration at which bacterial count is zero / no survivors: viable colony count at 48 h on TSA+ plates; for OD600: 24 hr
# Procedure: Absorbance (OD600) and total colony count (upon plating overnight culture grown in the presence of natural extracts) were employed for screening.
# (§1) VPAHPND (13-028/A3) was revived from glycerol stock kept in −80 degrees C. in Aquaculture Pathology Laboratory following a previous publication (Han et al., 2015). Briefly, 800 mL of Tryptic Soy Broth (TSB) containing 2% NaCl (TSB+) medium was prepared and autoclaved. The bacterial stock was thawed on ice and briefly vortexed before transferring 250 μl of the bacterial culture to 5 ml TSB+ in a 50 ml flask. The flask was incubated at 28 degrees C. in a shaker incubator (CORNING, Model LSE) (120 rpm) for 2 h. After the incubation, the broth was transferred into 50 ml TSB+ in a 250 ml flask before incubating at 28 degrees C. in a shaker incubator (120 rpm) for 2 h. After 2 h., the bacterial culture was mixed with 300 ml TSB and incubated for 24 h at 28 degrees C. After 24 h, the optical density (OD) of the culture was measured at 600 nm. Under these culture conditions, the OD values should exceed 2.8. The broth was diluted to 1×10^7 CFU/ml based on the OD reading. A 10-fold serial dilution of the bacterial culture was prepared and the live bacterial count upon overnight growth was determined by plating the culture on Tryptic Soy Agar (TSA) containing 2% NaCl (TSA+) plates.
# Initially extracts were diluted up to 50% with diluent fish oil, then a serial dilution of extracts was prepared Concentrations of extracts range between [0.3-0.0937% (v/v)], which was prepared in TSB+ (Tryptic soy broth) medium. The culture medium TSB+ (2 ml) containing NEs was inoculated with 100 μL (approx. 1×10^7 CFU/mL) of an overnight culture of the pathogen and briefly mixed by vortexing before incubating at 28 degrees C. The OD600 values was recorded at 12, 24 and 48 h post-incubation (FIG. 9). In addition, at each time point and for each concentration of the NEs, aliquots of bacterial suspension were inoculated on TSA+plate before incubating overnight at 28 degrees C. The MIC for each NE was determined by recording OD600 values and taking bacterial count. For each NE, the MIC assay was repeated three times on different days, and the average OD600 value was taken to determine the MIC for each concentration of a corresponding NE.
# VPAHPND cells = experiment: Scanning electron microscopy of NE treated VPAHPND cells; type: cell-based, Vibrio parahaemolyticus; details: sub-inhibitory concentration of extract, 24 hr incubation
# Procedure: The effect of NEs on bacterial cells was determined by culturing VPAHPND in medium containing NEs and examining the cells under a scanning electron microscope (SEM). The subinhibitory concentration of extracts used in the medium was MIC. The control treatment was VPAHPND grown in the presence of fish oil. Samples were fixed by following a protocol described by Lv et al. (2011) and McQuade et al. (2012) with some modifications. Briefly, 25 μl of 8% glutaraldehyde solution (Electron Microscopy Sciences, Hatfield, Pa.) was added to 200 μl of the overnight culture of bacteria. After 40 minutes of incubation at room temperature, samples were washed three times with 1× phosphate-buffered saline (PBS, pH 7.0). Subsequently, samples were washed with water and stained with 1% osmium tetroxide (Ted Pella, Inc., Redding, Ariz.). Finally, samples were washed in water and dehydrated in a series of ethanol solutions with concentrations ranging from 30% to 90% (v/v). The slides with fixed bacterial cells were mounted, sputter-coated in gold under vacuum, and examined using a […] field emission scanning electron microscope (ANATECH, USA).
# [2] = test system: VPAHPND (13-028/A3), AHPND-causing Vibrio parahaemolyticus; experiment: Paper disk diffusion assay; type: cell-based; details: mean ± SD; for Average diameter of inhibitory zone (mm) CNE 1/16: extract concentration 1/16 (v/v); for Average diameter of inhibitory zone (mm) CNE 1/16 / Average diameter of inhibitory zone (mm) CNE ¼ / Average diameter of inhibitory zone (mm) CNE ½ / Average diameter of inhibitory zone (mm) CNE ⅛: ND: not detected, <7 mm = no antimicrobial activity; for Average diameter of inhibitory zone (mm) CNE ¼: extract concentration ¼ (v/v); for Average diameter of inhibitory zone (mm) CNE ½: extract concentration ½ (v/v), 2 μL on paper disk, TSA+, 28° C., 24 hr; for Average diameter of inhibitory zone (mm) CNE ⅛: extract concentration ⅛ (v/v)
# Procedure: as §1
# The antibacterial activities of the NEs were tested using a paper disk diffusion assay following a previously published method with some modifications (Mith et al., 2014). Briefly, the extracts were diluted with fish oil (NE01-NE013) or DMSO (NE14 to NE18) at the following concentrations: 1:1, 1:2, 1:4, and 1:8. The VPAHPND (13-028/A3) culture lawns were created on TSA+plates by thoroughly streaking the culture over the entire surface of the plate with a cotton swab. Meanwhile, 2 μL of each concentration of the NEs was soaked on to a paper disk for 15 min before placing in the center of the bacteria inoculated TSA+plates. Fish oil and DMSO were used as controls. For each dilution of the NE two replicates were done. The plates were then incubated at 28° C. for 24 hr. The efficacy of the extract in inhibiting bacterial growth was determined by measuring the diameter of clear zones for each concentration to the nearest millimeter (mm). The diameter of the inhibitory zone <7 mm was considered as having no antimicrobial activity (Mith et al., 2014). The experiments were repeated four times for all 18 NEs, and the average was taken to calculate the diameter of the inhibitory zone.
# [3] = test system: AHPND-causing Vibrio parahaemolyticus; experiment: AHPND bioassay: NE05 in diet, immersion challenge (clinical signs, survival, mortality); type: in vivo, Penaeus vannamei; details: for Percent survival: 7 days post-challenge, three independent experiments
# Procedure: The efficacy of NE05 in preventing AHPND was evaluated by using an in vivo assay. The NE05 was mixed with a commercially pelleted shrimp diet at concentrations of 20% and 10% (v/w). Commercial diets containing 20% and 10% fish oil were used as controls. The feed was prepared using a standard feed maker (CORNING, Model LSE) and dried in a chemical hood for 24 h at room temperature. The feed was coated with fish oil dried for an additional 12 h to prevent the smell and increase palatability.
# Ten 37 L glass tanks were used in this study. Seawater was prepared following a SOP used in Aquaculture Pathology Laboratory. Approximately 800 g of sea salt (Marinex, Baltimore, Md.) was mixed with 30 L of tap water to get 20-25 ppt of salinity. After the marine salt was dissolved, salinity was checked using a refractometer (SPER SCIENTIFIC, Model #300011). The salinity level of the water was adjusted by adding water until the range needed for the study was reached (20-25 ppt). Throughout the experiment, the room temperature was maintained at 29±2 degrees C. using a heater. Before starting the bioassay, the tanks were held for two days without any animal to equilibrate the water temperature to that of the room. The water temperature was maintained at 29±2 degrees C. Each tank was equipped with an air pump having an air capacity of 2.5 liters/min connected to two air stones. One air stone was directly immersed into the tank, and the other one was connected to the filters. Disinfected weight was kept above each air stone. The heater was kept inside the room during the experiment.
# (§2) Specific Pathogen Free shrimp (P. vannamei) (avg. weight 1-2 g) were stocked at a density of 10 shrimp/tank. In total there were two treatments and two controls: shrimp fed diet containing 20% NE05, 10% NE05, a positive and a negative control (shrimp fed diet containing fish oil). Each treatment and control had two replicates. Animals in all treatments except the negative control were subjected to an immersion challenge with V. parahaemolyticus. In the negative control tanks, sterilized TSB+ medium was added instead of bacterial suspension. Throughout the experiment, shrimps were fed corresponding diets daily at 5% of their body weight. The experiments were repeated three times. On day 6 post-feeding of the experimental diets, shrimps were challenged with V. parahaemolyticus at a dose of 10^6 CFU/ml (500 ml of V. parahaemolyticus culture grown for 24 h, OD600 of 5). After the bacterial challenge, tanks were monitored several times a day, and mortalities were recorded, and dead shrimps were removed immediately. Hepatopancreas tissue from moribund shrimp was dissected, half of the tissue was preserved in Davidson's fixative for histopathology, while the remaining half of hepatopancreas was stored at −20 degrees C. for PCR detection of V. parahaemolyticus. […] At the termination of the bioassay, average mortality for each treatment was calculated, and one-way ANOVA was performed to determine any significant difference among different treatments. A (p-value <0.05) between treatments was considered significant.
# [4] = test system: AHPND-causing Vibrio parahaemolyticus; experiment: Histopathology (H&E) of hepatopancreas of shrimp from the AHPND bioassay; type: in vivo, Penaeus vannamei
# Description: as §2
# Moribund shrimp were fixed in Davidson's alcohol-formalin-acetic acid (AFA). The samples were processed, embedded in paraffin, and sectioned ([…]) following a standard protocol (Lightner, 1996). The sections were stained with hematoxylin and eosin (H&E) and examined using a light microscope for histological lesions of AHPND (Tran et al., 2013).
Molecule,MIC assay results: effective concentration (Example 1) [1] [v/v %],MIC (Example 2) [1] [v/v %],Extract concentration at which bacterial count is zero / no survivors [1],Bacterial cell morphology under SEM (VPAHPND cells),Average diameter of inhibitory zone (mm) CNE 1/16 [2] [mm],Average diameter of inhibitory zone (mm) CNE ¼ [2] [mm],Average diameter of inhibitory zone (mm) CNE ½ [2] [mm],Average diameter of inhibitory zone (mm) CNE ⅛ [2] [mm],also measured
"Cc1ccc(C(C)C)cc1O [NE03, Cavacrol]",0.007,0.075,0.075 % (v/v),non-intact lysed cells with possible leaking out of cytoplasmic constituents; also recorded: disruption of cell surface and leaking of cytoplasmic components; also recorded: affected bacterial cell wall resulting in its disruption and leaking of intracellular components,8.53 ± 0.16,16 ± 0.77,20.51 ± 0.97,13.53 ± 0.42,–
"CC(C)=CCCC(C)=CC=O [NE01, Citral]",0.015,0.15,0.15 % (v/v),a few irregular wrinkled cells but also had a lot of intact cells,7.48 ± 0.42,12.53 ± 0.50,17.75 ± 1.4,9.36 ± 0.58,"OD600 ([1]; extract concentration 0.0983%): 2.5; OD600 ([1]; extract concentration 0.15% (v/v)): zero; Bacterial count ([1]; 48 h, extract concentration 0.0983% (v/v)): 2.5×10^9 CFU/ml"
"O=C/C=C/c1ccccc1 [NE05, Trans Cinnamaldehyde]",0.002,0.02,0.02 % (v/v),"extensive cell wall damage, and possible leaking out of intracellular components; also recorded: disruption of cell surface and leaking of cytoplasmic components; also recorded: affected bacterial cell wall resulting in its disruption and leaking of intracellular components",9.36 ± 0.32,18.66 ± 0.98,26±1.8,14.03 ± 0.80,"Mortality by day 3 ([3]; diet containing NE05-10%): 85%; Time at which mortality began post-challenge ([3]; diet containing NE05-10%): 10 h; Percent survival ([3]; diet containing NE05-10%): 15%; Mortality during the first 24 h post-challenge ([3]; diet containing NE05-20%): did not show mortality; Percent survival ([3]; diet containing NE05-20%): 100% and 93%; Mortality by day 2 ([3]; diet containing NE05-20%, thereafter no mortality): 4%; Gross clinical signs of AHPND ([3]; shrimp fed diet containing NE05 at 10%, immersion challenge): appeared clinically similar to the animals fed commercial diet; also recorded: HP appeared pale and gut empty; Histopathology of hepatopancreas ([4]; NE05-10% treatment, 24 h post-challenge): Mild sloughing of epithelial cells in hepatopancreatic tubule; Histopathology of hepatopancreas ([4]; NE05-10% treatment, 48 h post-infection): hallmark of AHPND infection; Histopathology of hepatopancreas ([4]; NE05-20% treatment, 24 & 48 h post-challenge): did not show any lesions that are considered pathognomonic of AHPND; also recorded: showed no lesions that are pathognomonic of AHPND; H&E histological section of HP tissue (FIGS. 19E-19F) ([4]; diet containing NE05-10%, challenged with AHPND): Terminal phase lesions displaying sloughing of necrotic HP tubule epithelial cells; H&E histological section of HP tissue (FIGS. 19G-19H) ([4]; diet containing NE05-20%, challenged with AHPND): Hepatopancreatic tubule appear similar to healthy animals"
Doxycycline Hyclate [reference compound],–,–,–,–,–,–,–,–,"Average diameter of inhibitory zone (mm), antibiotic reference standard ([2]; Doxycycline Hyclate 10 μg): 24.43±0.57 mm"
